Patent US10077237B2 (Sanofi, priority 2013, dated 2018)
Where “and” joins values, the source holds several entries; their conditions need not be identical. Equal entries are not always repeated.

Biological target: T1, recombinant human AMPK complex, containing α2β1γ2 (Homo sapiens, UniProt P54646+Q9Y478)
T1 construct: hsAMPKα2-552-His, hsAMPKβ1-2-270 and hsAMPKγ-2-569 respectively; hsAMPKβ1-2-270; hsAMPKγ-2-569; His (C); made in house; host or cells: Spodoptera frugiperda Sf21 (baculovirus)
Experiment: AMPK in vitro activation assay (HTRF)
Type: biochemical
Details: for EC50: HTRF, recombinant human α2β1γ2 AMPK, 200 μM ATP, biotinylated ACC-CREBp peptide, repeat determinations on separate lines
Experimental: The recombinant human AMPK complex, containing α2β1γ2 was obtained from baculovirus expression system and generated by cotransfection in Spodoptera frugiperda 21 (Sf21). […] were produced in serum free medium (SF900 II, Invitrogen) for 82 hours after a triple infection at a multiplicity of infection (M.O.I.) of 0.05, 0.06 and 0.045 for hsAMPKα2-552-His, hsAMPKβ1-2-270 and hsAMPKγ-2-569 respectively. Cells were harvested by centrifugation at 1,000×g for 10 minutes at 4° C. and stored at −80° C. The insect cell pellet from 8 liters of culture was resuspended and homogenized in 580 ml of lysis buffer (20 mM Hepes pH 7.5, 150 mM NaCl, 10 mM imidazole, 50 mM NaF, 10% Glycerol and supplemented with EDTA free proteases inhibitor cocktail Roche). The AMPK complex was partially purified using an affinity chromatography under a Ni-NTA Agarose column equilibrated in the lysis buffer and eluted with a gradient (0 to 400 mM) of Imidazol.
A homogeneous time-resolved fluorescence (HTRF) assay was used (Li et al, Anal. Biochem. (2003) 321, 151-156) to identify compounds with stimulating activity for the recombinant human AMPK. Enzyme reaction was performed into a 96-well microtiter plate. First, 20 μL of test compounds in 0.5% DMSO were dispensed followed by 10 μL of protein in 50 mM HEPES buffer at pH 7.0, 100 mM NaCl, 5 mM MgCl2, 0.01% BSA, 0.8 mM DTT. After, 30 min incubation at room temperature, the reaction was initiated by the addition of 10 μL of a solution containing 200 μM of ATP as donor substrate, 2 μM or 0.08 μM of biotinylated ACC-CREBp peptide (PolyPeptide) as acceptor. Plates were then incubated 45 min at 37° C. The reaction was terminated by the addition of 40 μl detection mixture containing Eu^3+ cryptate-conjugated anti-pS^133-CREB antibody and streptavidine-XL665 (CisBio). Plates were further incubated for 2 h30 at room temperature. The fluorescence signal was measured using an Envision multireader (Perkin Elmer). The non-specific signal was obtained without substrates. Potentiation of AMPK activity was expressed as a percent over the basal signal (without compound) from which an EC50 value was determined.
The EC50 of a graded dose response curve represents the concentration of a compound where 50% of its maximal effect is observed.

[1] = potentiation of AMPK activity as percent over the basal signal (without compound)

T1 sequence (P54646 2-552): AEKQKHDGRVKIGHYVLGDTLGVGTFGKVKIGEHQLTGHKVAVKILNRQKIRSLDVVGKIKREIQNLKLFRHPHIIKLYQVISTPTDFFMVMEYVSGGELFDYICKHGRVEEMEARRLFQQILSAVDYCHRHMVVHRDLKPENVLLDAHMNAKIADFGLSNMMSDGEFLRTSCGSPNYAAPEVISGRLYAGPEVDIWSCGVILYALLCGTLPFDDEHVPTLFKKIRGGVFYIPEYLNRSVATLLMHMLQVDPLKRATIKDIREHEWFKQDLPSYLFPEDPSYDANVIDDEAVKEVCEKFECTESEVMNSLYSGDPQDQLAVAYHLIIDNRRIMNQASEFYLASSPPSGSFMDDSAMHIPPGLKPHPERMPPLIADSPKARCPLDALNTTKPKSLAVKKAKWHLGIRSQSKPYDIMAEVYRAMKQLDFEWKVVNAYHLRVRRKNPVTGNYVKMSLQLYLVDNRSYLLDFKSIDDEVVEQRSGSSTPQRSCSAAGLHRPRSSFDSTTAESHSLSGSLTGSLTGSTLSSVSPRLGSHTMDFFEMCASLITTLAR
T1 sequence (Q9Y478 2-270): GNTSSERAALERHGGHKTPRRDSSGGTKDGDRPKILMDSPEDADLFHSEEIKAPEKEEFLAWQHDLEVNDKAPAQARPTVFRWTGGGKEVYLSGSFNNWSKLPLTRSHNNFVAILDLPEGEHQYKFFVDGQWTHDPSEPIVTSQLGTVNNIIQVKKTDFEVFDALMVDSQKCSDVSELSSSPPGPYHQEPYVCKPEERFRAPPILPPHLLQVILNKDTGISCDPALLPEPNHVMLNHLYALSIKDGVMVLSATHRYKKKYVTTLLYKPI
T1 sequence (Q9UGJ0 2-569 partner limits assumed): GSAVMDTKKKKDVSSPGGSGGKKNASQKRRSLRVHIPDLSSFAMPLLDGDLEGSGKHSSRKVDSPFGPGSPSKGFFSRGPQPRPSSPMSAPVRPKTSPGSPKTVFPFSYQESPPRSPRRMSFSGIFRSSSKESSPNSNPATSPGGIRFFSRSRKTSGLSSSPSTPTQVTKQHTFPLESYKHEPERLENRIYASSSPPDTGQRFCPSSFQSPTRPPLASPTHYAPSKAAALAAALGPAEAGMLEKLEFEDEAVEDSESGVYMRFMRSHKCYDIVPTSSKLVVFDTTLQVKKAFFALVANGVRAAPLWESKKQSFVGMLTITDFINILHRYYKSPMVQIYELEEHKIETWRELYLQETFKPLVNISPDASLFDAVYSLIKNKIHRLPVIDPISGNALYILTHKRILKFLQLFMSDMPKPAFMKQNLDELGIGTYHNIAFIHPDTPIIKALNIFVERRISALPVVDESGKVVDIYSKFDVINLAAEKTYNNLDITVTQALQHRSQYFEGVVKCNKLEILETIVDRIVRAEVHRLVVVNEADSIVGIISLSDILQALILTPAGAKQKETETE

SMILES	EC50	Emax [1] [%]	α2β1γ2 AMPK Emax [1]
COc1ccc(-c2cc3c(cc2Cl)NC(=O)C3=C(O)c2cc(C)no2)cc1F [Compound 55, 6-Chloro-5-(3-fluoro-4-methoxy-phenyl)-3-[1-hydroxy-1-(3-methyl-isoxazol-5-yl)-methylidene]-1,3-dihydro-indol-2-one]	430 nM	174	
COc1cc(C(O)=C2C(=O)Nc3cc(Cl)c(-c4ccc(N(C)C)cc4)cc32)on1 [Compound 127, 6-chloro-5-(4-dimethylaminophenyl)-3-[hydroxy-(3-methoxyisoxazol-5-yl)methylene]indolin-2-one]		296	
Cc1cc(C(O)=C2C(=O)Nc3cc(Cl)c(-c4ccc(N5CCOCC5)cc4)cc32)no1 [Compound 28, 6-Chloro-3-[1-hydroxy-1-(5-methyl-isoxazol-3-yl)-methylidene]-5-(4-morpholin-4-yl-phenyl)-1,3-dihydro-indol-2-one]	130 nM	150	
O=C1Nc2cc(Cl)c(-c3ccc(N4CCOCC4)cc3)cc2C1=C(O)c1cc(C2CC2)no1 [Compound 87, 6-chloro-3-[(3-cyclopropylisoxazol-5-yl)hydroxy-methylene]-5-(4-morpholinophenyl)indolin-2-one]	0.5 nM and 0.6 nM		
Cc1cc(C(O)=C2C(=O)Nc3cc(Cl)c(-c4ccc(C5CC5)cc4)cc32)on1 [Compound 22, 6-Chloro-5-(4-cyclopropyl-phenyl)-3-[1-hydroxy-1-(3-methyl-isoxazol-5-yl)-methylidene]-1,3-dihydro-indol-2-one]	250 nM	147	
O=C1Nc2cc(Cl)c(-c3ccc(N4CCOCC4)cc3)cc2C1=C(O)c1ccc(OC(F)(F)F)c(F)c1 [Compound 95, 6-chloro-3-[[3-fluoro-4-(trifluoromethoxy)phenyl]-hydroxy-methylene]-5-(4-morpholinophenyl)indolin-2-one]	396 nM	159	
Cc1cc(C(O)=C2C(=O)Nc3cc(Cl)c(-c4ccc(O)cc4)cc32)on1 [Compound 33, 6-Chloro-3-[1-hydroxy-1-(3-methyl-isoxazol-5-yl)-methylidene]-5-(4-hydroxy-phenyl)-1,3-dihydro-indol-2-one]	390 nM	120	
Cc1cc(C(O)=C2C(=O)Nc3cc(Cl)c(-c4ccc(Cl)cc4)cc32)on1 [Compound 63, 6-Chloro-5-(4-chloro-phenyl)-3-[1-hydroxy-1-(3-methyl-isoxazol-5-yl)-methylidene]-1,3-dihydro-indol-2-one]	4020 nM	134	
O=C1Nc2cc(Cl)c(-c3ccc(N4CCOCC4)cc3)cc2C1=C(O)c1cccnc1 [Compound 25, 6-Chloro-3-[1-hydroxy-1-pyridin-3-yl-methylidene]-5-(4-morpholin-4-yl-phenyl)-1,3-dihydro-indol-2-one]	320 nM	146	
O=C1Nc2cc(Cl)c(-c3ccc(N4CCOCC4)cc3)cc2C1=C(O)c1ccccc1 [Compound 43, 6-Chloro-3-[1-hydroxy-1-phenyl-methylidene]-5-(4-morpholin-4-yl-phenyl)-1,3-dihydro-indol-2-one]	220 nM	170	
O=C1Nc2cc(Cl)c(-c3ccc(N4CCOCC4)cc3)cc2C1=C(O)c1cccc(O)c1 [Compound 3, 6-Chloro-3-[1-hydroxy-1-(3-hydroxy-phenyl)-methylidene]-5-(4-morpholin-4-yl-phenyl)-1,3-dihydro-indol-2-one]	190 nM	138	
O=C1Nc2cc(Cl)c(-c3ccc(N4CCOCC4)cc3)cc2C1=C(O)c1ccc(F)cc1 [Compound 36, 6-Chloro-3-[1-(4-fluoro-phenyl)-1-hydroxy-methylidene]-5-(4-morpholin-4-yl-phenyl)-1,3-dihydro-indol-2-one]	380 nM	153	
N#Cc1cccc(C(O)=C2C(=O)Nc3cc(Cl)c(-c4ccc(N5CCOCC5)cc4)cc32)c1 [Compound 18, 3-{[6-Chloro-5-(4-morpholin-4-yl-phenyl)-2-oxo-1,2-dihydro-indolylidene]-hydroxy-methyl}-benzonitrile]	190 nM	135	

Second part, the compound after the results:

EC50	Emax [1] [%]	α2β1γ2 AMPK Emax [1]	SMILES
89 nM	127		Cc1ncc(C(O)=C2C(=O)Nc3cc(Cl)c(-c4ccc(N(C)C)cc4)cc32)s1 [Compound 10, 6-Chloro-5-(4-dimethylamino-phenyl)-3-[1-hydroxy-1-(2-methyl-thiazol-5-yl)-methylidene]-1,3-dihydro-indol-2-one]
11 nM	194		CC(C)(C)c1cc(C(O)=C2C(=O)Nc3cc(Cl)c(-c4ccc(C5CC(O)C5)cc4)cc32)on1 (centres unmarked) [Compound 164, 3-[(3-tert-butylisoxazol-5-yl)-hydroxy-methylene]6-chloro-5-[4-(3-hydroxycyclobutyl)phenyl]indolin-2-one]
21 nM		(124 +/− 11) %	Cc1cc(C(O)=C2C(=O)Nc3cc(Cl)c(-c4ccc(N(C)C)cc4)cc32)on1 [Compound 1, 6-Chloro-5-(4-dimethylamino-phenyl)-3-[1-hydroxy-1-(3-methyl-isoxazol-5-yl)-methylidene]-1,3-dihydro-indol-2-one]
6 nM	197		O=C1Nc2cc(Cl)c(-c3ccc(C4CC(O)C4)cc3)cc2C1=C(O)c1ccccc1F (centres unmarked) [Compound 171, 6-chloro-3-[(2-fluorophenyl)hydroxy-methylene]-5-[4-(3-hydroxycyclobutyl)phenyl]indolin-2-one]
27 nM	132		COc1cccc(-c2ccc(-c3cc4c(cc3Cl)NC(=O)C4=C(O)c3cc(C)ns3)cc2)c1O [Compound 42, 6-Chloro-5-(2′-hydroxy-3′-methoxy-biphenyl-4-yl)-3-[1-hydroxy-1-(3-methyl-isothiazol-5-yl)-methylidene]-1,3-dihydro-indol-2-one]
6 nM	239		O=C1Nc2cc(Cl)c(-c3ccc(C4(CO)CC4)cc3)cc2C1=C(O)c1cncc(F)c1 [Compound 142, 6-chloro-3-[(5-fluoro-3-pyridyl)hydroxy-methylene]-5-[4-[1-(hydroxymethyl)cyclopropyl]phenyl]indolin-2-one]
4 nM	172		COc1cc(C(O)=C2C(=O)Nc3cc(Cl)c(-c4ccc(C(CO)CO)cc4)cc32)on1 [Compound 121, 6-chloro-5-[4-[2-hydroxy-1-(hydroxymethyl)ethyl]phenyl]-3-[hydroxy-(3-methoxyisoxazol-5-yl)methylene]indolin-2-one]
33 nM	124		CN(C)c1ccc(-c2cc3c(cc2Cl)NC(=O)C3=C(O)c2cccc(C(=O)O)c2)cc1 [Compound 8, 3-{[6-Chloro-5-(4-dimethylamino-phenyl)-2-oxo-1,2-dihydro-indolylidene]-hydroxy-methyl}-benzoic acid]
36 nM	159		COc1cc(C(O)=C2C(=O)Nc3cc(Cl)c(-c4ccc(OCc5cccnc5)cc4)cc32)on1 [Compound 100, 6-chloro-3-[hydroxy-(3-methoxyisoxazol-5-yl)methylene]-5-[4-(3-pyridylmethoxy)phenyl]indolin-2-one]
2 nM	229		COc1cc(C(O)=C2C(=O)Nc3cc(Cl)c(-c4ccc(N5CCC(O)C5)cc4)cc32)on1 (centres unmarked) [Compound 156, 6-chloro-3-[hydroxy-(3-methoxyisoxazol-5-yl)methylene]-5-[4-(3-hydroxypyrrolidin-1-yl)phenyl]indolin-2-one]
6 nM	170		COc1cc(C(O)=C2C(=O)Nc3cc(Cl)c(-c4ccc(N5CCOCC5)c(F)c4)cc32)on1 [Compound 149, 6-chloro-5-(3-fluoro-4-morpholino-phenyl)-3-[hydroxy-(3-methoxyisoxazol-5-yl)methylene]indolin-2-one]
1 nM	185		O=C1Nc2cc(Cl)c(-c3ccc(C4CC(O)C4)cc3)cc2C1=C(O)c1cc(C2CC2)no1 (centres unmarked) [Compound 174, 6-chloro-3-[(3-cyclopropylisoxazol-5-yl)hydroxy-methylene]-5-[4-(3-hydroxycyclobutyl)phenyl]indolin-2-one]
13 nM	197		CC(C)(C)c1cc(C(O)=C2C(=O)Nc3cc(Cl)c(-c4ccc(N5CCOCC5)cc4)cc32)on1 [Compound 112, 3-[(3-tert-butylisoxazol-5-yl)-hydroxy-methylene]6-chloro-5-(4-morpholinophenyl)indolin-2-one]
